Data from ChEMBL document CHEMBL1201862, “PubChem BioAssay data set” (2004).
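Cells were grown in 96-well plates and exposed to each compound for 48 hours at five concentrations; endpoints were interpolated linearly between bracketing concentrations, or set to the highest concentration if not reached. GI50: concentration for 50% inhibition of growth.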 Active and inactive are the calls of the source. No stated cut-off is given here; in the data, active = GI50 up to about 1.1 µM and inactive = higher.

What was measured:
Assay in all cases: inhibition of tumour cell growth, NCI panel, 48 h
786-0 = system: 786-0
A549 = system: A549
CCRF-CEM = system: CCRF-CEM
DU-145 = system: DU-145
HCT-15 = system: HCT-15
HOP-92 = system: HOP-92
M14 = system: M14
MCF7 = system: MCF7
Malme-3M = system: Malme-3M
NCI-H23 = system: NCI-H23
NCI-H460 = system: NCI-H460
NCI-H522 = system: NCI-H522
NCI/ADR-RES = system: NCI/ADR-RES
SK-MEL-2 = system: SK-MEL-2
SK-OV-3 = system: SK-OV-3
SW-620 = system: SW-620
TK-10 = system: TK-10
RXF 393 = system: RXF 393

| Structure (SMILES) | GI50 (786-0) | GI50 (A549) | GI50 (CCRF-CEM) | GI50 (DU-145) | GI50 (HCT-15) | GI50 (HOP-92) | GI50 (M14) | GI50 (MCF7) | GI50 (Malme-3M) | GI50 (NCI-H23) | GI50 (NCI-H460) | GI50 (NCI-H522) | GI50 (NCI/ADR-RES) | GI50 (SK-MEL-2) | GI50 (SK-OV-3) | GI50 (SW-620) | GI50 (TK-10) | GI50 (RXF 393) |
| --- | --- | --- | --- | --- | --- | --- | --- | --- | --- | --- | --- | --- | --- | --- | --- | --- | --- | --- |
| CCCC(=O)OC1CC(n2cc(F)c(=O)[nH]c2=O)OC1COP(=O)(OCC(Cl)(Cl)Cl)OCC(Cl)(Cl)Cl (configuration not stated) | 0.31 µM (active) | 0.461 µM (active) | 0.372 µM (active) | 0.938 µM (active) | 22.1 µM | 4.99 µM (inactive) | 2.06 µM (inactive) | 0.0697 µM (active) | 5.41 µM (inactive) | 11 µM (inactive) | 0.0351 µM (active) | 5.51 µM (inactive) | 1.17 µM (inactive) | > 59.4 µM (inactive) | 12.4 µM (inactive) | 19.9 µM (inactive) | 22.5 µM (inactive) |  |
| C/C=C\C(CC(=O)NCCc1c[nH]c2ccccc12)CC(=O)OC (configuration not stated) | > 100 µM (inactive) | > 100 µM (inactive) |  | > 100 µM (inactive) | > 100 µM | > 100 µM (inactive) | > 100 µM (inactive) | > 100 µM (inactive) | > 100 µM (inactive) | > 100 µM (inactive) | > 100 µM (inactive) | > 100 µM (inactive) | > 100 µM (inactive) | > 100 µM (inactive) | > 100 µM (inactive) | > 100 µM (inactive) | > 100 µM (inactive) | > 100 µM (inactive) |
| Cc1ccc(NC(=O)c2cc(S(=O)(=O)Nc3n[nH]c(=O)n3-c3ccccc3)c(S)cc2Cl)cc1 | > 100 µM (inactive) | > 100 µM (inactive) |  | > 100 µM (inactive) | > 100 µM | > 100 µM (inactive) | > 100 µM (inactive) | > 100 µM (inactive) | > 100 µM (inactive) | > 100 µM (inactive) | > 100 µM (inactive) | > 100 µM (inactive) | > 100 µM (inactive) | > 100 µM (inactive) | > 100 µM (inactive) | > 100 µM (inactive) | > 100 µM (inactive) | > 100 µM (inactive) |
| ClCCc1ccccc1CC1=NCCc2ccccc21 | 42.6 µM (inactive) | 33.2 µM (inactive) | 39.9 µM (inactive) | > 100 µM (inactive) | 33 µM | 28.1 µM (inactive) | 24.5 µM (inactive) | 27.7 µM (inactive) |  | 21.5 µM (inactive) | 25.8 µM (inactive) | 16.7 µM (inactive) | 21.9 µM (inactive) | 18.5 µM (inactive) | 44.7 µM (inactive) | 29.9 µM (inactive) | 41.7 µM (inactive) | 21.7 µM (inactive) |
| O=C1c2cccc(O)c2C(=O)c2c(OC3OC(CO)C(O)C(O)C3O)cccc21 (configuration not stated) | 22.2 µM (inactive) | 27.3 µM (inactive) |  | 32.2 µM (inactive) | 20.6 µM | 73.8 µM (inactive) | 21.5 µM (inactive) | 30.1 µM (inactive) | 6.12 µM (inactive) | 15.3 µM (inactive) | 17.9 µM (inactive) | 15.8 µM (inactive) | 17 µM (inactive) | 46.8 µM (inactive) | 48.2 µM (inactive) | 16.9 µM (inactive) | 40.4 µM (inactive) | 26 µM (inactive) |
| Clc1ccc(CCN2CCN(CCCc3ccccc3)CC2)cc1Cl | 16.6 µM (inactive) | 15.9 µM (inactive) | 33.3 µM (inactive) | 16.4 µM (inactive) | 13.5 µM | 11.3 µM (inactive) | 14.4 µM (inactive) | 17.5 µM (inactive) | 19.1 µM (inactive) | 16.9 µM (inactive) | 17.7 µM (inactive) | 20.6 µM (inactive) | 14.7 µM (inactive) | 18.8 µM (inactive) | 19.3 µM (inactive) | 20 µM (inactive) | 16.2 µM (inactive) |  |
